This note sets out measurements from patent EP4567031A1, “HPK1 INHIBITOR, PREPARATION METHOD THEREFOR, AND USE THEREOF” (Beijing Earthwise Technology Co., Ltd., priority 2022, dated 2024).

One assay has as its system human Pan T cells. In words: Human Pan T cell IL-2 ELISA. Type of assay: cell-based. The following applies: Anti-CD3 and Anti-CD28, 48 hours, supernatant IL-2 ELISA, read-out: IL-2 release, EC50. The method, then: A compound was dissolved in DMSO to 10 mM, and then diluted three-fold with DMSO to 9 dosages in a 96-well plate. Then, 10 µL of the diluted compound sample was transferred to a 96-well plate with 90 µL of cell culture medium, and the plate was shaken for 5 minutes. Then, 5 µL of the diluted compound sample was transferred to a 96-well plate with 120 µL of cell culture medium, and the plate was shaken for 5 minutes. According to the experimental design diagram, 50 µL of the diluted compound sample was transferred to a cell plate. Final concentrations of the compound in this assay were 10000.00, 5000, 2500, 1250, 625, 312.5, 156.25, 78.125 and 39.063 nM.
The assay was conducted in a 96-well plate. On the first day of the assay, Anti-CD3 was added to the 96-well plate and incubated in a 4 °C refrigerator overnight. On the second day of the assay, human Pan T cells were recovered, centrifuged and counted. The cell density was adjusted to 1*10^6 cells/ml. Then, 100 µL of cells were added to the 96-well plate washed with PBS and added with Anti-CD3; according to the experimental design diagram, 50 µL of diluted Anti-CD28 and 50 µL of the diluted compound were added to each well, centrifuged, and the cell plate was placed and incubated in an incubator for 48 hours; after 48 hours, the plate was centrifuged and the supernatant was collected for IL-2 ELISA.
The signal value of light absorption was converted into a multiple. Multiple = sample value/the average value of control wells. The average value of control wells refers to the value measured in wells with DMSO added. EC50 values were calculated by XLFit (version 5.3.1.3) in Excel. Equation: Y=Bottom + (Top-Bottom) / (1 + (EC50/X) ^ HillSlope). Table 6. Results of cellular activity of the compounds
For the compound `CCC1(C)c2cc(N3CCOCC3)ccc2Nc2c1cc(-c1cnc3c(OC)nccn13)c1c2C(=O)NC1` (single isomer, unassigned) [Example 213], the EC50 was 0.019 µM. The same measure, in the same setting: the result for `CC1CCCn2c(-c3cc4c(c5c3CNC5=O)Nc3ccc(N5CCOCC5)cc3C4(C)C)cnc21` (single isomer, unassigned) [Example 218] reads 0.019 µM; that for `CC1CCCn2c(-c3cc4c(c5c3CNC5=O)Nc3ccc(N5CCOCC5)cc3C4(C)C)cnc21` (single isomer, unassigned) [Example 219], 0.0081 µM; that for `CC1(C)c2cc(N3CCOCC3)ccc2Nc2c1cc(-c1cnc3n1CCCC3O)c1c2C(=O)NC1` (single isomer, unassigned) [Example 228], 0.011 µM. Still for that read-out and setting: the result for `COC1CCn2c(-c3cc4c(c5c3CNC5=O)Nc3ccc(N5CCOCC5)cc3C4(C)C)cnc21` (single isomer, unassigned) [Example 230] reads 0.0076 µM; that for `CC1(C)c2cc(N3CCOCC3)ccc2Nc2c1cc(-c1cnc3n1CCC(C(F)F)C3)c1c2C(=O)NC1` (single isomer, unassigned) [Example 239], 0.0075 µM; that for `CC1(C)c2cc(N3CCOCC3)ccc2Nc2c1cc(-c1cnc3n1CCC(C(F)F)C3)c1c2C(=O)NC1` (single isomer, unassigned) [Example 240], 0.026 µM.

Staying with this assay, now noted: Homo sapiens, T-cell, 48 h, Anti-CD3 and Anti-CD28, supernatant IL-2 ELISA, read-out: IL-2 release, EC50.
`CC1(C)c2cc(N3CCOCC3)ccc2Nc2c1cc(-c1cnc3n1CCCC3OC1COC1)c1c2C(=O)NC1` (single isomer, unassigned) [Example 220]: the EC50 stood at 0.05 µM. For the compound `CC1(C)c2cc(N3CCOCC3)ccc2Nc2c1cc(-c1cnc3n1CCCC3O)c1c2C(=O)NC1` (single isomer, unassigned) [Example 227], the EC50 was 0.0064 µM. The same measure, in the same setting: in the case of `COC1CCn2c(-c3cc4c(c5c3CNC5=O)Nc3ccc(N5CCOCC5)cc3C4(C)C)cnc21` (single isomer, unassigned) [Example 229] it was 0.014 µM. On the same count and under the same terms, the result for `COCC1(O)CCN(c2ccc3c(c2)C(C)(C)c2cc(-c4cnc5n4CCCC5OC)c4c(c2N3)C(=O)NC4)CC1` (single isomer, unassigned) [Example 231] reads 0.0105 µM. The same measure, in the same setting: the result for `CC1(C)c2cc(N3CCOCC3)ccc2Nc2c1cc(-c1cnc3n1CCC(O)C3)c1c2C(=O)NC1` (single isomer, unassigned) [Example 241] reads 0.01 µM; that for `CC1(C)c2cc(N3CCOCC3)ccc2Nc2c1cc(-c1cnc3n1CCC(C#N)C3)c1c2C(=O)NC1` (single isomer, unassigned) [Example 242], 0.0085 µM; that for `COC1CCCn2c(-c3cc4c(c5c3CNC5=O)Nc3ccc(N5CCC(O)CC5)cc3C4(C)C)cnc21` (single isomer, unassigned) [Example 243], 0.013 µM. Turning to `COc1nccn2c(-c3cc4c(c5c3CNC5=O)Nc3ccc(N5CCOCC5C)cc3C4(C)C)cnc12` (single isomer, unassigned) [Example 244], the EC50 was found to be 0.0098 µM. On the same count and under the same terms, in the case of `COC1CCCn2c(-c3nc4c(c5c3CNC5=O)Nc3ccc(N5CCOCC5)cc3C4(C)C)cnc21` (single isomer, unassigned) [Example 279] it was 0.17 µM. The same measure, in the same setting: in the case of `CCOC1CCCn2c(-c3cc4c(c5c3CCNC5=O)Nc3ccc(N5CCOCC5)cc3C4(C)C)cnc21` (single isomer, unassigned) [Example 281] it was 0.018 µM; in that of `Cn1ccc2c(-c3cc4c(c5c3CNC5=O)Nc3ccc(N5CCOCC5)cc3C4(C)C)ccnc21` [Example 42], 0.0142 µM.

As for `CC1(C)c2cc(N3CCOC(C(C)(C)O)C3)ccc2Nc2c1cc(-c1ccncc1)c1c2C(=O)NC1` (stereo not drawn) [Example 43], the EC50 came out at 0.0223 µM. On the same count and under the same terms, the result for `CN1CCN(c2ccc3c(c2)C(C)(C)c2cc(-c4cnn5cccnc45)c4c(c2N3)C(=O)NC4)CC1` [Example 44] reads 0.00247 µM; that for `CNC1CCN(c2ccc3c(c2)C(C)(C)c2cc(-c4cnn5cccnc45)c4c(c2N3)C(=O)NC4)CC1` [Example 45], 0.00528 µM; that for `CC1(C)c2cc(N3CCC(O)CC3)ccc2Nc2c1cc(-c1cnn3cccnc13)c1c2C(=O)NC1` [Example 47], 0.00462 µM. Still for that read-out and setting: in the case of `CC1(C)c2cc(N3CCOCC3)ccc2Nc2c1cc(-c1cnc3n1CCCC3)c1c2C(=O)NC1` [Example 48] it was 0.0135 µM; in that of `COCC1(O)CCN(c2ccc3c(c2)C(C)(C)c2cc(-c4cnn5cccnc45)c4c(c2N3)C(=O)NC4)CC1` [Example 49], 0.0127 µM. Same read-out and setting: the result for `CC1(C)c2cc(N3CCOC(C(C)(C)O)C3)ccc2Nc2c1cc(-c1cnc3c(Cl)cccn13)c1c2C(=O)NC1` (stereo not drawn) [Example 99] reads 0.00552 µM. On to `CC1(C)c2cc(N3CCOC(C(C)(C)O)C3)ccc2Nc2c1cc(-c1cnc3cc(Cl)ccn13)c1c2C(=O)NC1` (stereo not drawn) [Example 100], for which the EC50 was determined as 0.0131 µM. `CC1(C)c2cc(N3CCOC(C(C)(C)O)C3)ccc2Nc2c1cc(-c1cnc3cc(C#N)ccn13)c1c2C(=O)NC1` (stereo not drawn) [Example 101]: the EC50 turned out to be 0.00558 µM. On the same count and under the same terms, the result for `COC1CCCn2c(-c3cc4c(c5c3CNC5=O)Nc3ccc(N5CCOC(C(C)(C)O)C5)cc3C4(C)C)cnc21` (stereo not drawn) [Example 102] reads 0.0108 µM; that for `CC1CCCn2c(-c3cc4c(c5c3CNC5=O)Nc3ccc(N5CCOC(C(C)(C)O)C5)cc3C4(C)C)cnc21` (stereo not drawn) [Example 103], 0.0104 µM; that for `Cc1c(-c2cc3c(c4c2CNC4=O)Nc2ccc(N4CCOC(C(C)(C)O)C4)cc2C3(C)C)cnc2c1NCCO2` (stereo not drawn) [Example 104], 0.00644 µM.

On to `Cn1c(-c2cc3c(c4c2CNC4=O)Nc2ccc(N4CCOC(C(C)(C)O)C4)cc2C3(C)C)cnc1C1CC1` (stereo not drawn) [Example 105], for which the 50% effective concentration (EC50) was 0.0116 µM. On the same count and under the same terms, the result for `CC1(C)c2cc(N3CCOC(CO)C3)ccc2Nc2c1cc(-c1cnc3cc(F)ccn13)c1c2C(=O)NC1` (stereo not drawn) [Example 108] reads 0.00558 µM; that for `CC1(C)c2cc(N3CCOC(C(C)(C)O)C3)ccc2Nc2c1cc(-c1cnn3cc(F)ccc13)c1c2C(=O)NC1` (stereo not drawn) [Example 109], 0.00918 µM. The same measure, in the same setting: in the case of `COc1ccn2c(-c3cc4c(c5c3CNC5=O)Nc3ccc(N5CCOC(C(C)(C)O)C5)cc3C4(C)C)cnc2c1` (stereo not drawn) [Example 110] it was 0.0159 µM; in that of `CC1(C)c2cc(N3CCOC(C(C)(C)O)C3)ccc2Nc2c1cc(-c1cncc3c1OCCN3)c1c2C(=O)NC1` (stereo not drawn) [Example 111], 0.0308 µM; in that of `CC1(C)c2cc(N3CCOC(C(C)(C)O)C3)ccc2Nc2c1cc(-c1cnc3cnccn13)c1c2C(=O)NC1` (stereo not drawn) [Example 112], 0.00467 µM.

As for `CC1(C)c2cc(N3CCOC(C(C)(C)O)C3)ccc2Nc2c1cc(-c1cnc3cc(C(F)F)ccn13)c1c2C(=O)NC1` (stereo not drawn) [Example 113], the EC50 turned out to be 0.014 µM. Same read-out and setting: the result for `COc1nccn2c(-c3cc4c(c5c3CNC5=O)Nc3ccc(N5CCOC(C(C)(C)O)C5)cc3C4(C)C)cnc12` (stereo not drawn) [Example 114] reads 0.0109 µM; that for `CC1(C)c2cc(N3CC(CO)OCC3=O)ccc2Nc2c1cc(-c1cnn3cccnc13)c1c2C(=O)NC1` (stereo not drawn) [Example 115], 0.0915 µM; that for `CC1(C)c2cc(-c3cnn4cccnc34)c3c(c2Nc2cc(F)c(N4CCOCC4)c(F)c21)C(=O)NC3` [Example 116], 0.0653 µM.

Take `CC1(C)c2cc(N3CCOC(CO)C3)ccc2Nc2c1cc(-c1cnn3cccnc13)c1c2C(=O)NC1` (stereo not drawn) [Example 118]: the EC50 was found to be 0.00732 µM. On the same count and under the same terms, in the case of `Cn1cnc2c(-c3cc4c(c5c3CNC5=O)Nc3ccc(N5CCOC(C(C)(C)O)C5)cc3C4(C)C)cncc21` (stereo not drawn) [Example 119] it was 0.00852 µM; in that of `CC1(C)c2cc(N3CCOC(C(C)(C)O)C3)ccc2Nc2c1cc(-c1cnn3ccccc13)c1c2C(=O)NC1` (stereo not drawn) [Example 122], 0.0043 µM; in that of `CC1(C)c2cc(N3CCOC(C(C)(C)O)C3)ccc2Nc2c1cc(-c1cnc3n1CCCCC3)c1c2C(=O)NC1` (stereo not drawn) [Example 123], 0.0203 µM. For `CC1(C)c2cc(-c3cnc4cc(F)ccn34)c3c(c2Nc2ccc(N4CCOC(C(C)(C)O)C4)c(F)c21)C(=O)NC3` (stereo not drawn) [Example 124], the EC50 turned out to be 0.0157 µM. Still for that read-out and setting: in the case of `COCC1CN(c2ccc3c(c2)C(C)(C)c2cc(-c4cnc5c(F)c(C)ccn45)c4c(c2N3)C(=O)NC4)CCO1` (stereo not drawn) [Example 131] it was 0.00827 µM; in that of `CC1(C)c2cc(N3CCOCC3)ccc2Nc2c1cc(-c1cnc3cnccn13)c1c2C(=O)NC1` [Example 156], 0.00276 µM; in that of `CCOc1nccn2c(-c3cc4c(c5c3CNC5=O)Nc3ccc(N5CCOCC5)cc3C4(C)C)cnc12` [Example 160], 0.0126 µM. Still for that read-out and setting: in the case of `CC1(C)c2cc(N3CCOCC3)ccc2Nc2c1cc(-c1cnc3cc(C(F)F)ccn13)c1c2C(=O)NC1` [Example 161] it was 0.00636 µM; in that of `CCc1nccn2c(-c3cc4c(c5c3CNC5=O)Nc3ccc(N5CCOCC5)cc3C4(C)C)cnc12` [Example 164], 0.017 µM; in that of `CC1(C)c2cc(N3CCOCC3)ccc2Nc2c1cc(-c1cnc3cc(C#N)ccn13)c1c2C(=O)NC1` [Example 165], 0.0048 µM.
